Test results published in publication PMC5478869, “New Hydroxycinnamic Acid Esters as Novel 5-Lipoxygenase Inhibitors That Affect Leukotriene Biosynthesis” (Mediators of Inflammation, 2017).

Columns and labels:
arachidonic acid release = experiment: Arachidonic acid release from thapsigargin-stimulated PMNL (GC-MS); format: cell-based, human; conditions: 1 μM compound, 1 μM thapsigargin 5 min, vs control (0.5% DMSO)
Description: Quantification of arachidonic acid release from cellular membranes was performed as previously described. Briefly, freshly isolated PMNL (10^7 cells/ml, in HBSS containing 1.6 mM CaCl2 and 0.1% BSA) were incubated with adenosine deaminase (0.3 U/ml) and test compounds for 5 min at 37°C. Stimulation was initiated with the addition of 1 μM thapsigargin, followed by incubation at 37°C for 5 min. The reactions were stopped with the addition of two volumes of cold MeOH and 300 ng of arachidonic acid-d8 (Cayman Chemicals) as internal standard. The samples were stored at −20°C overnight and then centrifuged the next day at 1000 g for 10 min. The supernatants were diluted with four volumes of acidified water (0.1%) then processed on an octadecyl (C18) column. Samples were eluted with the addition of 3 ml of MeOH and dried under nitrogen. Pentafluorobenzylesters were prepared with the addition 50 μl N,N-diisopropylethylamine (20% in acetonitrile) and 50 μl of […] (20% in acetonitrile). Samples were heated for 40 min at 40°C, then dried under nitrogen and resuspended in 100 μl of hexane. Samples were quantified by negative ion chemical ionization gas chromatography/mass spectrometry using TraceGC ultra column (Thermo) and a Polaris Q mass spectrometer (Thermo).
Figure 4 The impact of test compounds on the liberation of arachidonic acid in stimulated PMNL. Human PMNL were incubated with test compounds (1 μM) or their diluent (control, DMSO 0.5%) for 5 min. Stimulation was then initiated with the addition of 1 μM thapsigargin, followed by an incubation at 37°C for 5 min. The reactions were stopped with the addition of two volumes of cold MeOH and 300 ng of arachidonic acid-d8, then samples were stored overnight at −20°C. Free arachidonic acid was first extracted on octadecyl columns, then pentafluorobenzylesters of arachidonic acid were prepared and samples were measured on GC-MS. Spontaneous release of AA was also measured in absence of thapsigargin (nonactivated, NA). ^∗Different from control as determined by one-way ANOVA with Dunnett's multiple comparison test (p < 0.05). Data are expressed as means ± SEM of at least 3 independent experiments.

[1] = target: T1, platelet 12-lipoxygenase (12-LO) (Homo sapiens, UniProt P18054); experiment: Platelet activation (A23187), biosynthesis of 12-HETE; format: cell-based; conditions: 10 μM A23187 5 min
T1 construct: endogenous in cells; host or cells: platelets isolated from platelet-rich plasma
T1 sequence (P18054 1-663): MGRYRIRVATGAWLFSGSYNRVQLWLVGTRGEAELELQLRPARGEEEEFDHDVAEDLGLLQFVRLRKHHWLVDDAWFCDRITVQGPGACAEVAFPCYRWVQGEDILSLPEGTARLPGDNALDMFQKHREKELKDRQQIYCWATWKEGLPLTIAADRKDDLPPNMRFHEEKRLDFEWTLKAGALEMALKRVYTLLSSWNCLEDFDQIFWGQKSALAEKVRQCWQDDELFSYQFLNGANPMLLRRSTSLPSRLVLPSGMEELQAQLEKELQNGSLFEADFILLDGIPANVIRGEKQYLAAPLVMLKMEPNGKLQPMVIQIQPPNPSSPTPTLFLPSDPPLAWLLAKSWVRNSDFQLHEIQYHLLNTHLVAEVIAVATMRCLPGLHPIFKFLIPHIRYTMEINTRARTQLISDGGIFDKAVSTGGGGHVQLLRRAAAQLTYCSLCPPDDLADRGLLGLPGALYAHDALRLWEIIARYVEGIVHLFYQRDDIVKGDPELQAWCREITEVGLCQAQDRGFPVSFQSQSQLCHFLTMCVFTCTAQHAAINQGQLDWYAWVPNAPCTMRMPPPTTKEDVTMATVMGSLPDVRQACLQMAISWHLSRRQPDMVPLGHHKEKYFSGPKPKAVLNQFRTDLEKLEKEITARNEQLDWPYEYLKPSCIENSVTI
Description: Polymorphonuclear leukocytes (PMNL) were isolated as previously described. Briefly, whole blood was collected (with anticoagulant citrate dextrose (ACD)) and then centrifuged at 500 g for 10 min. Platelet-rich plasma (PRP) was set aside for platelet isolation (see below), and erythrocytes were removed by dextran sedimentation. After a centrifugation step at 900 g × 20 min at room temperature on a lymphocyte separation medium cushion (density, 1.077 g/ml) (Wisent), PMNL were obtained (>96%) followed by hypotonic lysis of the remaining erythrocytes. PMNL were counted and resuspended at 10^7 cells/ml in HBSS supplemented with 1.6 mM CaCl2. PRP was processed as previously described for platelet isolation. Briefly, PRP was centrifuged at 400 g for 2 min at room temperature to remove the remaining erythrocytes. The supernatant was then centrifuged at 1300g for 10 min to pellet platelets. Cells were resuspended in Tyrode Buffer pH 7.4 (134 mM NaCl, 2.9 mM KCl, 0.34 mM Na2HPO4, 12 mM NaHCO3, 20 mM HEPES, 1 mM MgCl2, 5 mM glucose, and 0.5 mg/ml BSA) at 3 × 10^8 cells/ml in the presence of 5 mM CaCl2.
Platelets (3 × 10^8 cells/ml) were preincubated with various test compounds at indicated concentrations for 5 min at 37°C. Platelet activation was initiated with the addition of 10 μM of calcium ionophore A23187 (Sigma-Aldrich) followed by a 5 min incubation time at 37°C. Reactions were stopped with the addition of two volumes of cold MeOH:MeCN (1 : 1) containing PGB2 (100 ng/ml) as internal standard. Samples were stored overnight at −20°C and were then centrifuged, the supernatant was dried under nitrogen, and the samples were resuspended in 30% methanol and analyzed by RP-HPLC as indicated above.
Figure 5 The inhibitory effects of the test compounds of the biosynthesis of 5-LO products in stimulated whole blood (a) and the biosynthesis of 12-lipoxygenase products in platelets (b). (a) Whole blood was incubated in presence of various compounds (1 μM and 5 μM) or with their diluent (control, DMSO 0.5%) for 5 min, then stimulated with opsonized zymosan (5 mg/ml) for 30 min at 37°C. Blood was then centrifuged and plasma was collected and added to 3.5 volumes of MeOH:CH3CN (1 : 1). Samples were processed for analysis by RP-HPLC for total 5-LO products quantification. Total 5-LO products measured represent the sum of LTB4, its trans isomers, 20-COOH and 20-OH-LTB4, and 5-hydroxyeicosatetraenoic acid. (b) Platelets were incubated for 5 min in presence of test compounds (1 μM and 3 μM) then biosynthesis of 12-HETE was initiated with the addition of 10 μM of calcium ionophore A23187. Reactions were stopped with the addition of two volumes of MeOH:MeCN (1 : 1 v/v). Samples were processed for analysis by RP-HPLC for 12-hydroxyeicosatetraenoic acid (12-HETE) quantification. ^∗Different from control as determined by one-way ANOVA with Dunnett's multiple comparison test (p < 0.05). Data are expressed as means ± SEM of at least 3 independent experiments.
Having identified compounds that inhibit the biosynthesis of lipid mediators generated via the 5-LO pathway, their ability to inhibit platelet 12-lipoxygenase (12-LO) was assessed to determine whether they show specificity.

| Inhibition of biosynthesis of 12-HETE in platelets ([1]; 3 μM compound) | Structure (SMILES) | Inhibition of cellular arachidonic acid release in stimulated PMNL (arachidonic acid release) | Inhibition of biosynthesis of 12-HETE in platelets ([1]; 1 μM compound) |
| --- | --- | --- | --- |
| near-complete inhibition | O=C(/C=C/c1ccc(O)c(O)c1)OCCc1ccccc1 [CAPE (2), Caffeic acid phenethyl ester, reference compound] | significantly inhibited cellular arachidonic acid release | significantly inhibited the biosynthesis of 12-HETE |
| near-complete inhibition | C=C(C)CCOC(=O)/C=C/c1ccc(O)c(O)c1 [Compound 9] | significantly inhibited cellular arachidonic acid release | significantly inhibited the biosynthesis of 12-HETE |
| near-complete inhibition | O=C(/C=C/c1ccc(O)c(O)c1)OCCCc1ccccc1 [Compound 13] | significantly inhibited cellular arachidonic acid release | significantly inhibited the biosynthesis of 12-HETE |
| near-complete inhibition | O=C(/C=C/c1ccc(O)c(O)c1)OCCc1ccc(F)cc1 [Compound 14] | failed to significantly inhibit the release of cellular membrane arachidonic acid | significantly inhibited the biosynthesis of 12-HETE |
| near-complete inhibition | Cc1ccc(CCOC(=O)/C=C/c2ccc(O)c(O)c2)cc1 [Compound 15] | failed to significantly inhibit the release of cellular membrane arachidonic acid | significantly inhibited the biosynthesis of 12-HETE |
| significant inhibition | COc1ccc(CCOC(=O)/C=C/c2ccc(O)c(O)c2)cc1 [Compound 16] | failed to significantly inhibit the release of cellular membrane arachidonic acid | failed to significantly affect the biosynthesis of 12-HETE |
| significant inhibition | O=C(/C=C/c1ccc(O)c(O)c1)OCC(c1ccccc1)c1ccccc1 [Compound 19] | significantly inhibited cellular arachidonic acid release | failed to significantly affect the biosynthesis of 12-HETE |
